Experimental data reported in the NIST ThermoML archive (doi:10.1021/je1009976).

Assay: xn = mol fraction of the nth substance listed
Conditions: 101 kPa, Liquid; for viscosity: Capillary tube (Ostwald / Ubbelohde) method; for mass density: Pycnometric method

OCCOCCO [diethylene glycol] + O
Conditions | mass density, 303.15 K [kg/m3] | mass density, 308.15 K [kg/m3] | viscosity, 303.15 K [mPa·s] | viscosity, 308.15 K [mPa·s] | viscosity, 313.15 K [mPa·s]
x1 = 0.05006 | 1028.38 | 1026.09 | 1.556 | 1.37 | 1.222
x1 = 0.1016 | 1051.83 | 1048.94 | 2.582 | 2.242 | 1.962
x1 = 0.1512 | 1067.99 | 1065.34 | 3.83 | 3.286 | 2.833
x1 = 0.2012 | 1078.71 | 1075.25 | 5.261 | 4.448 | 3.806
x1 = 0.2477 | 1086.55 | 1082.95 | 6.653 | 5.591 | 4.739
x1 = 0.298 | 1092.27 | 1088.52 | 8.301 | 6.91 | 5.82
x1 = 0.3505 | 1096.22 | 1092.42 | 9.851 | 8.154 | 6.821
x1 = 0.4483 | 1101.17 | 1097.58 | 12.54 | 10.29 | 8.514
x1 = 0.5421 | 1103.74 | 1100.11 | 15.06 | 12.28 | 10.14
x1 = 0.6518 | 1106.25 | 1102.58 | 17.46 | 14.11 | 11.63
x1 = 0.7525 | 1107.78 | 1103.95 | 19.3 | 15.64 | 12.82
x1 = 0.7864 | 1107.94 | 1104.26 | 19.9 | 16.12 | 13.23
x1 = 0.8499 | 1108.55 | 1104.93 | 20.61 | 16.74 | 13.73
x1 = 0.9005 | 1108.84 | 1105.16 | 21.31 | 17.23 | 14.08
x1 = 0.9503 | 1109.66 | 1105.58 | 21.74 | 17.53 | 14.41
x1 = 1 | 1109.48 | 1105.72 | 22.16 | 17.93 | 14.71
